# Assay results from ChEMBL document CHEMBL1201861, “Genomics of Drug Sensitity in Cancer screening data, Wellcome Trust Sanger Institute”.
# Values joined by “and” are separate entries in the source; they are usually repeats but may differ in a detail not shown here. Equal values may be shown once.
# Experiments:
# COR-L279 = assay: SANGER: Inhibition of human COR-L279 cell growth in a cell viability assay.; assay type: functional, cell-based
# DG-75 = assay: cells; assay type: functional, cell-based; settings: Homo sapiens;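 also: growth inhibition of DG-75 cells, read out with a cell viability assay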
# Description: SANGER: Inhibition of human DG-75 cell growth in a cell viability assay.
# EB2 = assay: cells; assay type: functional, cell-based; settings: Homo sapiens;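 also: growth inhibition of EB2 cells, read out with a cell viability assay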
# Description: SANGER: Inhibition of human EB2 cell growth in a cell viability assay.
# EPLC-272H = assay: cells; assay type: functional, cell-based; settings: Homo sapiens
# Description: SANGER: Inhibition of human EPLC-272H cell growth in a cell viability assay.
# H-EMC-SS = assay: cells; assay type: functional, cell-based; settings: Homo sapiens
# Description: SANGER: Inhibition of human H-EMC-SS cell growth in a cell viability assay.
# HCT-15 = assay: cells; assay type: functional, cell-based, Homo sapiens;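 also: cell viability readout, IC50 reflecting suppression of HCT-15 cell growth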
# Description: SANGER: Inhibition of human HCT-15 cell growth in a cell viability assay.
# HSC-4 = assay: cells; assay type: functional, cell-based, Homo sapiens;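 also: growth inhibition of human HSC-4 cells, read out with a cell viability assay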
# Description: SANGER: Inhibition of human HSC-4 cell growth in a cell viability assay.
# HT55 = assay: cells; assay type: functional, cell-based, Homo sapiens;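 also: cell viability readout measuring growth inhibition of human HT55 cells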
# Description: SANGER: Inhibition of human HT55 cell growth in a cell viability assay.
# HuO9 = assay: cells; assay type: functional, cell-based, Homo sapiens;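 also: growth inhibition of HuO9 cells, read out with a cell viability assay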
# Description: SANGER: Inhibition of human HuO9 cell growth in a cell viability assay.
# IM-9 = assay: SANGER: Inhibition of human IM-9 cell growth in a cell viability assay.; assay type: functional, cell-based
# IST-SL2 = assay: cells; assay type: functional, cell-based; settings: Homo sapiens;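 also: growth inhibition of human IST-SL2 cells, read out by a cell viability assay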
# Description: SANGER: Inhibition of human IST-SL2 cell growth in a cell viability assay.
# JIYOYE = assay: cells; assay type: functional, cell-based; settings: Homo sapiens
# Description: SANGER: Inhibition of human JiyoyeP-2003 cell growth in a cell viability assay.
# Kasumi 1 = assay: cells; assay type: functional, cell-based; settings: Homo sapiens;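 also: growth inhibition of human Kasumi-1 cells, read out by a cell viability assay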
# Description: SANGER: Inhibition of human KASUMI-1 cell growth in a cell viability assay.
# LC4-1 = assay: cells; assay type: functional, cell-based; settings: Homo sapiens;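 also: growth inhibition of LC4-1 cells, read out with a cell viability assay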
# Description: SANGER: Inhibition of human LC4-1 cell growth in a cell viability assay.
# LOUCY = assay: cells; assay type: functional, cell-based; settings: Homo sapiens;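 also: growth inhibition of human LOUCY cells, read out with a cell viability assay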
# Description: SANGER: Inhibition of human LOUCY cell growth in a cell viability assay.
# MEL-JUSO = assay: cells; assay type: functional, cell-based, Homo sapiens;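 also: growth inhibition of human MEL-JUSO cells, read out with a cell viability assay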
# Description: SANGER: Inhibition of human MEL-JUSO cell growth in a cell viability assay.
# MHH-CALL-2 = assay: cells; assay type: functional, cell-based; settings: Homo sapiens;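 also: growth inhibition of the cell line, read out in a cell viability assay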
# Description: SANGER: Inhibition of human MHH-CALL-2 cell growth in a cell viability assay.
# MONO-MAC-6 = assay: cells; assay type: functional, cell-based; settings: Homo sapiens;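 also: cell viability assay measuring growth inhibition of human MONO-MAC-6 cells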
# Description: SANGER: Inhibition of human MONO-MAC-6 cell growth in a cell viability assay.
# NCCIT = assay: SANGER: Inhibition of human NCCIT cell growth in a cell viability assay.; assay type: functional, cell-based
# NCI-H1436 = assay: cells; assay type: functional, cell-based; settings: Homo sapiens;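 also: growth suppression of human NCI-H1436 cells, determined with a cell viability readout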
# Description: SANGER: Inhibition of human NCI-H1436 cell growth in a cell viability assay.
# NCI-H1573 = assay: cells; assay type: functional, cell-based; settings: Homo sapiens;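 also: growth inhibition of NCI-H1573 cells, read out with a cell viability assay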
# Description: SANGER: Inhibition of human NCI-H1573 cell growth in a cell viability assay.
# NCI-H1703 = assay: cells; assay type: functional, cell-based, Homo sapiens;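 also: growth inhibition of NCI-H1703 cells, read out via a cell viability assay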
# Description: SANGER: Inhibition of human NCI-H1703 cell growth in a cell viability assay.
# NCI-H2009 = assay: cells; assay type: functional, cell-based, Homo sapiens;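 also: cell viability assay measuring inhibition of NCI-H2009 cell growth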
# Description: SANGER: Inhibition of human NCI-H2009 cell growth in a cell viability assay.
# NCI-H2227 = assay: cells; assay type: functional, cell-based; settings: Homo sapiens;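 also: growth inhibition of the human cell line, read out with a cell viability assay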
# Description: SANGER: Inhibition of human NCI-H2227 cell growth in a cell viability assay.
# NCI-H2291 = assay: cells; assay type: functional, cell-based; settings: Homo sapiens
# Description: SANGER: Inhibition of human NCI-H2291 cell growth in a cell viability assay.
# NCI-H322M = assay: cells; assay type: functional, cell-based; settings: Homo sapiens;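 also: cell viability assay measuring inhibition of growth of human NCI-H322M cells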
# Description: SANGER: Inhibition of human NCI-H322M cell growth in a cell viability assay.
# NCI-H345 = assay: cells; assay type: functional, cell-based; settings: Homo sapiens;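 also: growth inhibition of NCI-H345 cells measured with a cell viability assay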
# Description: SANGER: Inhibition of human NCI-H345 cell growth in a cell viability assay.
# NCI-H524 = assay: cells; assay type: functional, cell-based; settings: Homo sapiens;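 also: growth inhibition of human NCI-H524 cells, read out through a cell viability assay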
# Description: SANGER: Inhibition of human NCI-H524 cell growth in a cell viability assay.
# NCI-H64 = assay: cells; assay type: functional, cell-based; settings: Homo sapiens;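 also: growth inhibition of NCI-H64 cells, read out with a cell viability assay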
# Description: SANGER: Inhibition of human NCI-H64 cell growth in a cell viability assay.
# SNU-16 = assay: cells; assay type: functional, cell-based; settings: Homo sapiens;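 also: growth inhibition of human SNU-16 cells, determined with a cell viability readout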
# Description: SANGER: Inhibition of human NCI-SNU-16 cell growth in a cell viability assay.
# OC-314 = assay: cells; assay type: functional, cell-based; settings: Homo sapiens
# Description: SANGER: Inhibition of human OC-314 cell growth in a cell viability assay.
# RL = assay: cells; assay type: functional, cell-based; settings: Homo sapiens
# Description: SANGER: Inhibition of human RL cell growth in a cell viability assay.
# RL95-2 = assay: cells; assay type: functional, cell-based; settings: Homo sapiens;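 also: RL95-2 growth inhibition determined through a cell viability readout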
# Description: SANGER: Inhibition of human RL95-2 cell growth in a cell viability assay.
# RPMI-6666 = assay: cells; assay type: functional, cell-based; settings: Homo sapiens
# Description: SANGER: Inhibition of human RPMI-6666 cell growth in a cell viability assay.
# SCC-3 = assay: cells; assay type: functional, cell-based; settings: Homo sapiens;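 also: cell viability assay measuring inhibition of SCC-3 cell growth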
# Description: SANGER: Inhibition of human SCC-3 cell growth in a cell viability assay.
# SCLC-21H = assay: cells; assay type: functional, cell-based; settings: Homo sapiens;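 also: growth inhibition of cultured human SCLC-21H cells, read out with a cell viability assay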
# Description: SANGER: Inhibition of human SCLC-21H cell growth in a cell viability assay.
# SIG-M5 = assay: cells; assay type: functional, cell-based; settings: Homo sapiens;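 also: cell viability assay read-out, measuring how strongly growth of cultured human SIG-M5 cells is inhibited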
# Description: SANGER: Inhibition of human SIG-M5 cell growth in a cell viability assay.
# SJRH30 = assay: cells; assay type: functional, cell-based; settings: Homo sapiens;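 also: growth inhibition of human SJRH30 cells, read out with a cell viability assay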
# Description: SANGER: Inhibition of human SJRH30 cell growth in a cell viability assay.
# SNU-C1 = assay: cells; assay type: functional, cell-based; settings: Homo sapiens;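 also: growth inhibition of SNU-C1 human cells, read out by a cell viability assay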
# Description: SANGER: Inhibition of human SNU-C1 cell growth in a cell viability assay.
# SU-DHL-1 = assay: SANGER: Inhibition of human SU-DHL-1 cell growth in a cell viability assay.; assay type: functional, cell-based
# SW 1116 = assay: cells; assay type: functional, cell-based; settings: Homo sapiens;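 also: growth inhibition of SW1116 cells, read out with a cell viability assay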
# Description: SANGER: Inhibition of human SW1116 cell growth in a cell viability assay.
# TALL-1 = assay: cells; assay type: functional, cell-based; settings: Homo sapiens;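 also: growth inhibition of cultured human TALL-1 cells, read out by a cell viability assay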
# Description: SANGER: Inhibition of human TALL-1 cell growth in a cell viability assay.
# 23132-87 = assay: cells; assay type: functional, cell-based, Homo sapiens
# Description: SANGER: Inhibition of human 23132-87 cell growth in a cell viability assay.
# ARH-77 = assay: cells; assay type: functional, cell-based; settings: Homo sapiens;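 also: growth inhibition of ARH-77 cells, read out by a cell viability assay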
# Description: SANGER: Inhibition of human ARH-77 cell growth in a cell viability assay.
# BC-3 = assay: cells; assay type: functional, cell-based; settings: Homo sapiens;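 also: cell viability assay measuring growth inhibition of human BC-3 cells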
# Description: SANGER: Inhibition of human BC-3 cell growth in a cell viability assay.
# CA46 = assay: cells; assay type: functional, cell-based; settings: Homo sapiens;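 also: growth inhibition of human CA46 cells, read out by a cell viability assay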
# Description: SANGER: Inhibition of human CA46 cell growth in a cell viability assay.
# CAL-148 = assay: cells; assay type: functional, cell-based; settings: Homo sapiens
# Description: SANGER: Inhibition of human CAL-148 cell growth in a cell viability assay.
# TE-15 = assay: cells; assay type: functional, cell-based; settings: Homo sapiens;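 also: cell viability readout of growth inhibition in TE-15 cells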
# Description: SANGER: Inhibition of human TE-15 cell growth in a cell viability assay.
# TE-441-T = assay: cells; assay type: functional, cell-based; settings: Homo sapiens
# Description: SANGER: Inhibition of human TE-441-T cell growth in a cell viability assay.
# THP-1 = assay: cells; assay type: functional, cell-based; settings: Homo sapiens;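 also: growth inhibition of THP-1 cells, read out via a cell viability assay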
# Description: SANGER: Inhibition of human THP-1 cell growth in a cell viability assay.
# U-698-M = assay: cells; assay type: functional, cell-based; settings: Homo sapiens
# Description: SANGER: Inhibition of human U-698-M cell growth in a cell viability assay.
# UACC-812 = assay: cells; assay type: functional, cell-based; settings: Homo sapiens
# Description: SANGER: Inhibition of human UACC-812 cell growth in a cell viability assay.
# YH-13 = assay: cells; assay type: functional, cell-based; settings: Homo sapiens;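 also: cell viability readout of growth suppression in the human YH-13 cell line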
# Description: SANGER: Inhibition of human YH-13 cell growth in a cell viability assay.
# CESS = assay: SANGER: Inhibition of human CESS cell growth in a cell viability assay.; assay type: functional, cell-based
# CFPAC-1 = assay: cells; assay type: functional, cell-based; settings: Homo sapiens;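 also: cell viability readout used to gauge suppression of CFPAC-1 cell proliferation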
# Description: SANGER: Inhibition of human CFPAC-1 cell growth in a cell viability assay.
# CMK = assay: cells; assay type: functional, cell-based; settings: Homo sapiens;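 also: growth inhibition of CMK cells, read out as cell viability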
# Description: SANGER: Inhibition of human CMK cell growth in a cell viability assay.
# LU-135 = assay: cells; assay type: functional, cell-based; settings: Homo sapiens
# Description: SANGER: Inhibition of human LU-135 cell growth in a cell viability assay.
# BALL-1 = assay: cells; assay type: functional, cell-based; settings: Homo sapiens;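 also: growth inhibition of BALL-1 cells, read out with a cell viability assay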
# Description: SANGER: Inhibition of human BALL-1 cell growth in a cell viability assay.
# TGBC11TKB = assay: cells; assay type: functional, cell-based; settings: Homo sapiens;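 also: growth inhibition of human TGBC11TKB cells, measured by a cell viability assay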
# Description: SANGER: Inhibition of human TGBC11TKB cell growth in a cell viability assay.
# TI-73 = assay: cells; assay type: functional, cell-based; settings: Homo sapiens;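 also: cell viability assay measuring how much compounds suppress growth of the cultured cell line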
# Description: SANGER: Inhibition of human TI-73 cell growth in a cell viability assay.
# MOLT-13 = assay: cells; assay type: functional, cell-based; settings: Homo sapiens;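 also: IC50 for suppression of MOLT-13 cell growth, read out with a cell viability assay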
# Description: SANGER: Inhibition of human MOLT-13 cell growth in a cell viability assay.
compound,measurement,setting,value
Cc1cc([C@@H](C)Nc2ccccc2C(=O)O)c2nc(N3CCOCC3)cc(=O)n2c1 [AZD-6482],IC50,COR-L279,> 5.12 µM
same,IC50,DG-75,> 5.12 µM
same,IC50,EB2,1.75 µM
same,IC50,EPLC-272H,> 5.12 µM
same,IC50,H-EMC-SS,> 5.12 µM
same,IC50,HCT-15; hct-15,> 5.12 µM
same,IC50,HSC-4; hsc-4,> 5.12 µM
same,IC50,"HT55; Homo sapiens, HT55",> 5.12 µM
same,IC50,HT55; ht55,> 5.12 µM
same,IC50,HuO9; huo9,1.61 µM and > 5.12 µM
same,IC50,IM-9,> 5.12 µM
same,IC50,IST-SL2,> 5.12 µM
same,IC50,JIYOYE,> 5.12 µM
same,IC50,Kasumi 1,2.06 µM
same,IC50,LC4-1,> 5.12 µM
same,IC50,LOUCY,> 5.12 µM
same,IC50,MEL-JUSO; mel-juso,> 5.12 µM
same,IC50,MHH-CALL-2,> 5.12 µM
same,IC50,MONO-MAC-6,> 5.12 µM
same,IC50,NCCIT,> 5.12 µM
same,IC50,NCI-H1436,> 5.12 µM
same,IC50,NCI-H1573,> 5.12 µM
same,IC50,"NCI-H1703; Homo sapiens, NCI-H1703",> 5.12 µM
same,IC50,NCI-H1703; nci-h1703,> 5.12 µM
same,IC50,NCI-H2009; nci-h2009,5.01 µM and > 5.12 µM
same,IC50,NCI-H2227,> 5.12 µM
same,IC50,NCI-H2291,1.58 µM
same,IC50,NCI-H322M,> 5.12 µM
same,IC50,NCI-H345,> 5.12 µM
same,IC50,NCI-H524,> 5.12 µM
same,IC50,NCI-H64,2.62 µM
same,IC50,SNU-16,> 5.12 µM
same,IC50,OC-314,> 5.12 µM
same,IC50,RL,> 5.12 µM
same,IC50,RL95-2,> 5.12 µM
same,IC50,RPMI-6666,0.644 µM
same,IC50,SCC-3,> 5.12 µM
same,IC50,SCLC-21H,> 5.12 µM
same,IC50,SIG-M5,> 5.12 µM
same,IC50,SJRH30,> 5.12 µM
same,IC50,SNU-C1,> 5.12 µM
same,IC50,SU-DHL-1,0.568 µM
same,IC50,SW 1116,> 5.12 µM
same,IC50,TALL-1,> 5.12 µM
same,IC50,23132-87,3.36 µM
same,IC50,23132-87; Homo sapiens,> 5.12 µM
same,IC50,ARH-77,> 5.12 µM
same,IC50,BC-3,> 5.12 µM
same,IC50,CA46,> 5.12 µM
same,IC50,CAL-148,4.18 µM
same,IC50,TE-15,4.67 µM
same,IC50,TE-441-T,> 5.12 µM
same,IC50,THP-1,> 5.12 µM
same,IC50,U-698-M,> 5.12 µM
same,IC50,UACC-812,> 5.12 µM
same,IC50,YH-13,1.95 µM
same,IC50,CESS,4.8 µM
same,IC50,CFPAC-1,> 5.12 µM
same,IC50,CMK,4.57 µM
O=c1cc(-c2cccc3c2Sc2ccccc2S3)oc(N2CCOCC2)c1 [KU-55933],IC50,EPLC-272H,> 10 µM
same,IC50,H-EMC-SS,> 10 µM
same,IC50,"HCT-15; Homo sapiens, HCT-15",> 10 µM
same,IC50,"HT55; Homo sapiens, HT55",> 10 µM
same,IC50,"HuO9; Homo sapiens, HuO9",> 10 µM
same,IC50,LU-135,> 10 µM
same,IC50,"MEL-JUSO; Homo sapiens, MEL-JUSO",> 10 µM
same,IC50,NCI-H1573,> 10 µM
same,IC50,"NCI-H1703; Homo sapiens, NCI-H1703",> 10 µM
same,IC50,"NCI-H2009; Homo sapiens, NCI-H2009",> 10 µM
same,IC50,NCI-H2291,> 10 µM
same,IC50,OC-314,> 10 µM
same,IC50,SJRH30,> 10 µM
same,IC50,SW 1116,> 10 µM
same,IC50,23132-87; Homo sapiens,> 10 µM
same,IC50,BALL-1,> 10 µM
same,IC50,TGBC11TKB,> 10 µM
same,IC50,TI-73,> 10 µM
same,IC50,YH-13,> 10 µM
same,IC50,CFPAC-1,> 10 µM
CN(Cc1cnc2nc(N)nc(N)c2n1)c1ccc(C(=O)N[C@@H](CCC(=O)O)C(=O)O)cc1 [METHOTREXATE],IC50,EPLC-272H,> 0.2 µM
same,IC50,H-EMC-SS,> 0.2 µM
same,IC50,"HSC-4; Homo sapiens, HSC-4",> 0.2 µM
same,IC50,"HT55; Homo sapiens, HT55",> 0.2 µM
same,IC50,"HuO9; Homo sapiens, HuO9",> 0.2 µM
same,IC50,LU-135,> 0.2 µM
same,IC50,"MEL-JUSO; Homo sapiens, MEL-JUSO",> 0.2 µM
same,IC50,NCI-H1573,> 0.2 µM
same,IC50,"NCI-H1703; Homo sapiens, NCI-H1703",> 0.2 µM
same,IC50,NCI-H2291,> 0.2 µM
same,IC50,OC-314,> 0.2 µM
same,IC50,SW 1116,> 0.2 µM
same,IC50,BALL-1,> 0.2 µM
same,IC50,TGBC11TKB,> 0.2 µM
same,IC50,TI-73,> 0.2 µM
same,IC50,YH-13,> 0.2 µM
same,IC50,CFPAC-1,> 0.2 µM
Cn1cc(C2=C(c3ccc(Cl)cc3Cl)C(=O)NC2=O)c2ccccc21 [SB-216763],IC50,EPLC-272H,> 10 µM
same,IC50,H-EMC-SS,> 10 µM
same,IC50,"HCT-15; Homo sapiens, HCT-15",> 10 µM
same,IC50,"HSC-4; Homo sapiens, HSC-4",> 10 µM
same,IC50,"HuO9; Homo sapiens, HuO9",> 10 µM
same,IC50,LU-135,> 10 µM
same,IC50,"MEL-JUSO; Homo sapiens, MEL-JUSO",> 10 µM
same,IC50,NCI-H1573,> 10 µM
same,IC50,"NCI-H1703; Homo sapiens, NCI-H1703",> 10 µM
same,IC50,"NCI-H2009; Homo sapiens, NCI-H2009",> 10 µM
same,IC50,NCI-H2291,> 10 µM
same,IC50,OC-314,> 10 µM
same,IC50,SJRH30,> 10 µM
same,IC50,SW 1116,> 10 µM
same,IC50,23132-87; Homo sapiens,> 10 µM
same,IC50,BALL-1,> 10 µM
same,IC50,TGBC11TKB,> 10 µM
same,IC50,TI-73,> 10 µM
same,IC50,YH-13,> 10 µM
same,IC50,CFPAC-1,> 10 µM
CNC(=O)c1cc(Oc2ccc(NC(=O)Nc3ccc(Cl)c(C(F)(F)F)c3)cc2)ccn1 [SORAFENIB],IC50,COR-L279,> 4 µM
same,IC50,DG-75,> 4 µM
same,IC50,EB2,> 4 µM
same,IC50,IM-9,> 4 µM
same,IC50,IST-SL2,> 4 µM
same,IC50,JIYOYE,> 4 µM
same,IC50,Kasumi 1,> 4 µM
same,IC50,LC4-1,> 4 µM
same,IC50,LOUCY,> 4 µM
same,IC50,MHH-CALL-2,> 4 µM
same,IC50,MOLT-13,> 4 µM
same,IC50,MONO-MAC-6,0.00418 µM
same,IC50,NCCIT,> 4 µM
same,IC50,NCI-H1436,1.22 µM
same,IC50,NCI-H2227,> 4 µM
same,IC50,NCI-H322M,> 4 µM
same,IC50,NCI-H345,> 4 µM
same,IC50,NCI-H524,> 4 µM
same,IC50,NCI-H64,> 4 µM
same,IC50,SNU-16,> 4 µM
same,IC50,RL,> 4 µM
same,IC50,RL95-2,> 4 µM
same,IC50,RPMI-6666,> 4 µM
same,IC50,SCC-3,> 4 µM
same,IC50,SCLC-21H,> 4 µM
same,IC50,SIG-M5,2.42 µM
same,IC50,SNU-C1,> 4 µM
same,IC50,SU-DHL-1,> 4 µM
same,IC50,TALL-1,> 4 µM
same,IC50,ARH-77,> 4 µM
same,IC50,BC-3,> 4 µM
same,IC50,CA46,> 4 µM
same,IC50,CAL-148,> 4 µM
same,IC50,TE-15,> 4 µM
same,IC50,TE-441-T,> 4 µM
same,IC50,THP-1,> 4 µM
same,IC50,U-698-M,> 4 µM
same,IC50,UACC-812,> 4 µM
same,IC50,CESS,> 4 µM
same,IC50,CMK,> 4 µM
